Source: the kinase profiling compilation of Christmann-Franck et al. (2016)

Key:
Assay in all cases: radiometric filter-binding kinase assay
[1] = system: AKT1 (human), P31749 [S473D]
AURKA (human) = AURKA (human) (UniProt O14965)
BRSK2 (human) = BRSK2 (human) (UniProt Q8IWQ3)
CHEK2 (human) = CHEK2 (human) (UniProt O96017)
CaMK1 (human) = CaMK1 (human) (UniProt Q14012)
DYRK1A (human) = DYRK1A (human) (UniProt Q13627)
DYRK2 (human) = DYRK2 (human) (UniProt Q92630)
EPHB2 (human) = EPHB2 (human) (UniProt P29323)
EPHB3 (human) = EPHB3 (human) (UniProt P54753)
ERBB4 (human) = ERBB4 (human) (UniProt Q15303)
HIPK2 (human) = HIPK2 (human) (UniProt Q9H2X6)
IKBKE (human) = IKBKE (human) (UniProt Q14164)
MAP2K6 (human) = MAP2K6 (human) (UniProt P52564)
MAP3K11 (human) = MAP3K11 (human) (UniProt Q16584)
MAPK1 (human) = MAPK1 (human) (UniProt P28482)
MAPK10 (human) = MAPK10 (human) (UniProt P53779)
MAPK12 (human) = MAPK12 (human) (UniProt P53778)
MAPK13 (human) = MAPK13 (human) (UniProt O15264)
MAPK3 (human) = MAPK3 (human) (UniProt P27361)
MAPK8 (human) = MAPK8 (human) (UniProt P45983)
MAPKAPK3 (human) = MAPKAPK3 (human) (UniProt Q16644)
MARK2 (human) = MARK2 (human) (UniProt Q7KZI7)
MKNK1 (human) = MKNK1 (human) (UniProt Q9BUB5)
MST4 (human) = MST4 (human) (UniProt Q9P289)
NEK2 (human) = NEK2 (human) (UniProt P51955)
NUAK1 (human) = NUAK1 (human) (UniProt O60285)
PAK4 (human) = PAK4 (human) (UniProt O96013)
PAK7 (human) = PAK7 (human) (UniProt Q9P286)
PLK1 (human) = PLK1 (human) (UniProt P53350)
PRKAA1 or PRKAA2 (rat) = conditions: accession and sequence are those of the human protein
PRKACA (human) = PRKACA (human) (UniProt P17612)
PRKCA (human) = PRKCA (human) (UniProt P17252)
RPS6KA1 KD1 KD2 (human) = RPS6KA1 KD1 KD2 (human) (UniProt Q15418)
[2] = system: SGK1 (human), O00141 [S422D]
SYK (human) = SYK (human) (UniProt P43405)

MKNK1 (human), sequence (Q9BUB5 whole entry, looked up): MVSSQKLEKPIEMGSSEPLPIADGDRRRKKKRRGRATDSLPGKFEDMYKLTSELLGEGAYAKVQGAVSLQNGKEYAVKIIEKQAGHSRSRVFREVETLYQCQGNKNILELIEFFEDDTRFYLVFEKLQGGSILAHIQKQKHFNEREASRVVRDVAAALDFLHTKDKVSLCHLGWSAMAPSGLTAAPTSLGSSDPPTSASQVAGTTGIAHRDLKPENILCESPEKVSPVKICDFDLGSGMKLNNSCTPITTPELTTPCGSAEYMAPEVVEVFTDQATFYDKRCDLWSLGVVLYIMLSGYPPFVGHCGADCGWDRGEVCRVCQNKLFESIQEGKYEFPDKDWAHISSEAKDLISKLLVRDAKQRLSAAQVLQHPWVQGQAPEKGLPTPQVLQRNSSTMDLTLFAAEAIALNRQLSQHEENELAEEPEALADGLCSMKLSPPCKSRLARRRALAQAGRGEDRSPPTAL
MAPK1 (human), sequence (P28482 whole entry, looked up): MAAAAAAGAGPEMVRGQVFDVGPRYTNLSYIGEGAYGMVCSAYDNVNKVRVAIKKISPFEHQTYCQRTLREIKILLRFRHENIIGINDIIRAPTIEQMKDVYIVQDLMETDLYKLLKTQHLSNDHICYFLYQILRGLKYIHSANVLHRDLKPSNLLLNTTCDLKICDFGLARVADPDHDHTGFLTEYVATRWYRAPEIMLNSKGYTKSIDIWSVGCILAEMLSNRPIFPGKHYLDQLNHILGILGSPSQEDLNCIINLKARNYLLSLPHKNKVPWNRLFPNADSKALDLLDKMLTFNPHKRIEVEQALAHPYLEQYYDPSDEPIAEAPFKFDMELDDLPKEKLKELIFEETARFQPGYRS
BRSK2 (human), sequence (Q8IWQ3 whole entry, looked up): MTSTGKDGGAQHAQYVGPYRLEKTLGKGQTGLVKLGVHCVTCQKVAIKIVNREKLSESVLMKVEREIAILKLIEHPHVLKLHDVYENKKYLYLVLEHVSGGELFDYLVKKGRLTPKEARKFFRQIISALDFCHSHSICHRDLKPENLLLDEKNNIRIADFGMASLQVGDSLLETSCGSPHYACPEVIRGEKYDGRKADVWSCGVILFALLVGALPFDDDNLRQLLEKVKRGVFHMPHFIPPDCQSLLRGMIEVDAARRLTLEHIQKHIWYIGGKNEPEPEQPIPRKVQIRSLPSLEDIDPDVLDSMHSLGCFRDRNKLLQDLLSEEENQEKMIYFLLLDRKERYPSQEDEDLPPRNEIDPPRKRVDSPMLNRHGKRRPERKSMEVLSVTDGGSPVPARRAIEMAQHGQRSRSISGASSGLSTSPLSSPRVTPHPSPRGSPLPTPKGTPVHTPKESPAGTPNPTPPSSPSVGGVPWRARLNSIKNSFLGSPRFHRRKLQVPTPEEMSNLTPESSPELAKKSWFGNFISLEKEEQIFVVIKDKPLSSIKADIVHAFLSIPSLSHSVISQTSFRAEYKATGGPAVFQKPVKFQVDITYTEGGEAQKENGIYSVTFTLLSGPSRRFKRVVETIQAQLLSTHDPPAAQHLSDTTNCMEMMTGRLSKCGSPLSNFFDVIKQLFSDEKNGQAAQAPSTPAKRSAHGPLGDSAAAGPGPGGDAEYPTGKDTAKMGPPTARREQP
CHEK2 (human), sequence (O96017 whole entry, looked up): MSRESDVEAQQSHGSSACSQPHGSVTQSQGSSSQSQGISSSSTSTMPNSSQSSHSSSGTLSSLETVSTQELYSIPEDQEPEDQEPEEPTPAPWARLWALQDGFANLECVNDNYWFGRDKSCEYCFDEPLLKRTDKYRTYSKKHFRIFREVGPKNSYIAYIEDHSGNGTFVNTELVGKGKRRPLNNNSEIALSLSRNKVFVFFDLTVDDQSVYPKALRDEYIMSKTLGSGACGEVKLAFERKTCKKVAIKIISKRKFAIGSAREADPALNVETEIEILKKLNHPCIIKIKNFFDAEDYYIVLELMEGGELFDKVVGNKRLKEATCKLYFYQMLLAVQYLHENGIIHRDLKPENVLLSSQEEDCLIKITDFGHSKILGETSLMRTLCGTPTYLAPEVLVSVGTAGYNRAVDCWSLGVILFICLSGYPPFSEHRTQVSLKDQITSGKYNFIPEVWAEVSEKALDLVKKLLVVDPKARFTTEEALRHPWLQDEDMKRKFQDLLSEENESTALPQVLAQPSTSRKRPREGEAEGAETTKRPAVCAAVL
MAPK10 (human), sequence (P53779 whole entry, looked up): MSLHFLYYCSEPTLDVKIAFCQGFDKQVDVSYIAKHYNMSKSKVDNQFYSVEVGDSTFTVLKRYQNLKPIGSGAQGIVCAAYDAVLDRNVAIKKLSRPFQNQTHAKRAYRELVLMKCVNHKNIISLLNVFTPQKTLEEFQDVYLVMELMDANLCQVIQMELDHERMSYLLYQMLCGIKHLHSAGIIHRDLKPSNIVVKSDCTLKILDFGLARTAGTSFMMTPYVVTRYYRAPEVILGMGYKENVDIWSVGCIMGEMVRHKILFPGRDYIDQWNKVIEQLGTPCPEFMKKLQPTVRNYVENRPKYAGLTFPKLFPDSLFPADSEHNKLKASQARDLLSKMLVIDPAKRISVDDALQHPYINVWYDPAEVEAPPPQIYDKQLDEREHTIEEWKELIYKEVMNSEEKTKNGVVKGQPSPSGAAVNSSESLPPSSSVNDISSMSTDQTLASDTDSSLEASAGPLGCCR
NUAK1 (human), sequence (O60285 whole entry, looked up): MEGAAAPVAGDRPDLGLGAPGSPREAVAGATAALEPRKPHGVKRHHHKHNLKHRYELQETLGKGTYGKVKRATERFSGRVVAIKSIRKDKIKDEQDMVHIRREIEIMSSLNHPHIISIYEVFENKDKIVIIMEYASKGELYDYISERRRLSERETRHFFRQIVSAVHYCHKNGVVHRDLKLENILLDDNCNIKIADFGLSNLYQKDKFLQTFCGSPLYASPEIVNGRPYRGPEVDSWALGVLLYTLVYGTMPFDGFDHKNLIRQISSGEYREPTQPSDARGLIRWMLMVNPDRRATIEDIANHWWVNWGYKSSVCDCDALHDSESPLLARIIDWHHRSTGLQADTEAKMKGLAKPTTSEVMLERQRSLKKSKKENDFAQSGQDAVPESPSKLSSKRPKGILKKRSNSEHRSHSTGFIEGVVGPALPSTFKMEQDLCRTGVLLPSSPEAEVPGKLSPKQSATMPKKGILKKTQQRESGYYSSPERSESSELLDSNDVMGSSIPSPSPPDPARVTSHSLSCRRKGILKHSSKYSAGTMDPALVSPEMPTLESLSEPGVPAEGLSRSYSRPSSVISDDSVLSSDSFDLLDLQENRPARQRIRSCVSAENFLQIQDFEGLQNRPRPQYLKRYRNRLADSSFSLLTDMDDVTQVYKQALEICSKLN
PAK7 (human), sequence (Q9P286 whole entry, looked up): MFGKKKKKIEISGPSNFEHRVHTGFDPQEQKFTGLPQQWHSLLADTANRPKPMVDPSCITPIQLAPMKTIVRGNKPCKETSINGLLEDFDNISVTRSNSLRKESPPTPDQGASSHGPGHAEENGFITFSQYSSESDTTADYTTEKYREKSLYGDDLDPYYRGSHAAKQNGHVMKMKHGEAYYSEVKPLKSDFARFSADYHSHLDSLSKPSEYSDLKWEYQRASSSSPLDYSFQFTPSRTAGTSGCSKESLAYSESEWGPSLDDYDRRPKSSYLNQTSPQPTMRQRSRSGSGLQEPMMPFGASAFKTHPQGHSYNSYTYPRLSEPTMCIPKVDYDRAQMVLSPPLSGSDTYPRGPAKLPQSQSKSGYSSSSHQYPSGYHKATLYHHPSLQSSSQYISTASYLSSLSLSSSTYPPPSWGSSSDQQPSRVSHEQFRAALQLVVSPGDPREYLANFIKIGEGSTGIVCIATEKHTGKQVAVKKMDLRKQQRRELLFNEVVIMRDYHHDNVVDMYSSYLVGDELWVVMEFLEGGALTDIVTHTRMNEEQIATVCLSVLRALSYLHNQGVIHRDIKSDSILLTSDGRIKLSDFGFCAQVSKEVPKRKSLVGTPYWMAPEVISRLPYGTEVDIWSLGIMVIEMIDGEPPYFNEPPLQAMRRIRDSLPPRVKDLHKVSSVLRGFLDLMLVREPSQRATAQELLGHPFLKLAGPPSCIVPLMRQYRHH
MARK2 (human), sequence (Q7KZI7 whole entry, looked up): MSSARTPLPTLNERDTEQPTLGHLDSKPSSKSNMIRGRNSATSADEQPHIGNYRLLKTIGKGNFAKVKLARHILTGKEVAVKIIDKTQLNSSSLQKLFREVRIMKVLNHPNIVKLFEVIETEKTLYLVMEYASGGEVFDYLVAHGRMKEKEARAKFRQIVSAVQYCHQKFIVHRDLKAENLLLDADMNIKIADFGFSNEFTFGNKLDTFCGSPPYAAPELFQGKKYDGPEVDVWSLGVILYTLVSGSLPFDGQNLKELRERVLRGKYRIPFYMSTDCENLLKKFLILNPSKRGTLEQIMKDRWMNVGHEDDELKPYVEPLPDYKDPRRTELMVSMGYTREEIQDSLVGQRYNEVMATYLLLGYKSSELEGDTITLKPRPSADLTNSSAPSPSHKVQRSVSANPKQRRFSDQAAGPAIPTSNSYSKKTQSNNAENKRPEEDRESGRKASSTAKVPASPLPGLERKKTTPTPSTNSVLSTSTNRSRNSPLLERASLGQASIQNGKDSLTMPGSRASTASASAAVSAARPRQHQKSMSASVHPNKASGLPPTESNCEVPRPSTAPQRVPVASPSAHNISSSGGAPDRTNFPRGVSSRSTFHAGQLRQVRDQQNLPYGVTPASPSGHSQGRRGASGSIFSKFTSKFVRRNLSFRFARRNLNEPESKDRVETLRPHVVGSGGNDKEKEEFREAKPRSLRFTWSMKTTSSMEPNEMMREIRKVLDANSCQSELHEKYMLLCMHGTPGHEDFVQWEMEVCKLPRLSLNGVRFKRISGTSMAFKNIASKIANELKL

## O=C(N[C@@H](COc1ccc2[nH]c(=O)[nH]c2c1)c1ccccc1)c1cccn(Cc2ccc(F)c(F)c2)c1=O
[1]; compound 0.1 µM
  residual activity: 96%
[1]; compound 1.0 µM
  residual activity: 97%
[1]; compound 10.0 µM
  residual activity: 90%
AURKA (human); compound 0.1 µM
  residual activity: 110%
AURKA (human); compound 1.0 µM
  residual activity: 110%
AURKA (human); compound 10.0 µM
  residual activity: 103%
BRSK2 (human); compound 0.1 µM
  residual activity: 118%
BRSK2 (human); compound 1.0 µM
  residual activity: 90%
BRSK2 (human); compound 10.0 µM
  residual activity: 79%
CHEK2 (human); compound 0.1 µM
  residual activity: 102%
CHEK2 (human); compound 1.0 µM
  residual activity: 106%
CHEK2 (human); compound 10.0 µM
  residual activity: 100%
CaMK1 (human); compound 0.1 µM
  residual activity: 95%
CaMK1 (human); compound 1.0 µM
  residual activity: 92%
CaMK1 (human); compound 10.0 µM
  residual activity: 51%
DYRK1A (human); compound 0.1 µM
  residual activity: 113%
DYRK1A (human); compound 1.0 µM
  residual activity: 97%
DYRK1A (human); compound 10.0 µM
  residual activity: 79%
DYRK2 (human); compound 0.1 µM
  residual activity: 110%
DYRK2 (human); compound 1.0 µM
  residual activity: 101%
DYRK2 (human); compound 10.0 µM
  residual activity: 83%
EPHB2 (human); compound 0.1 µM
  residual activity: 118%
EPHB2 (human); compound 10.0 µM
  residual activity: 121%
EPHB3 (human); compound 0.1 µM
  residual activity: 114%
EPHB3 (human); compound 1.0 µM
  residual activity: 119%
EPHB3 (human); compound 10.0 µM
  residual activity: 113%
ERBB4 (human); compound 0.1 µM
  residual activity: 102%
ERBB4 (human); compound 1.0 µM
  residual activity: 100%
ERBB4 (human); compound 10.0 µM
  residual activity: 98%
HIPK2 (human); compound 0.1 µM
  residual activity: 92%
HIPK2 (human); compound 1.0 µM
  residual activity: 96%
HIPK2 (human); compound 10.0 µM
  residual activity: 90%
IKBKE (human); compound 0.1 µM
  residual activity: 103%
IKBKE (human); compound 1.0 µM
  residual activity: 109%
IKBKE (human); compound 10.0 µM
  residual activity: 95%
MAP2K6 (human); compound 0.1 µM
  residual activity: 94%
MAP2K6 (human); compound 1.0 µM
  residual activity: 89%
MAP2K6 (human); compound 10.0 µM
  residual activity: 108%
MAP3K11 (human); compound 0.1 µM
  residual activity: 104%
MAP3K11 (human); compound 1.0 µM
  residual activity: 97%
MAP3K11 (human); compound 10.0 µM
  residual activity: 46%
MAPK1 (human); compound 0.1 µM
  residual activity: 102%
MAPK1 (human); compound 1.0 µM
  residual activity: 100%
MAPK1 (human); compound 10.0 µM
  residual activity: 101%
MAPK10 (human); compound 0.1 µM
  residual activity: 101%
MAPK10 (human); compound 1.0 µM
  residual activity: 90%
MAPK10 (human); compound 10.0 µM
  residual activity: 101%
MAPK12 (human); compound 0.1 µM
  residual activity: 98%
MAPK12 (human); compound 1.0 µM
  residual activity: 110%
MAPK12 (human); compound 10.0 µM
  residual activity: 105%
MAPK13 (human); compound 0.1 µM
  residual activity: 91%
MAPK13 (human); compound 1.0 µM
  residual activity: 97%
MAPK13 (human); compound 10.0 µM
  residual activity: 94%
MAPK3 (human); compound 0.1 µM
  residual activity: 93%
MAPK3 (human); compound 1.0 µM
  residual activity: 101%
MAPK3 (human); compound 10.0 µM
  residual activity: 95%
MAPK8 (human); compound 0.1 µM
  residual activity: 100%
MAPK8 (human); compound 10.0 µM
  residual activity: 114%
MAPKAPK3 (human); compound 0.1 µM
  residual activity: 116%
MAPKAPK3 (human); compound 1.0 µM
  residual activity: 109%
MAPKAPK3 (human); compound 10.0 µM
  residual activity: 74%
MARK2 (human); compound 0.1 µM
  residual activity: 105%
MARK2 (human); compound 1.0 µM
  residual activity: 102%
MARK2 (human); compound 10.0 µM
  residual activity: 88%
MKNK1 (human); compound 0.1 µM
  residual activity: 106%
MKNK1 (human); compound 1.0 µM
  residual activity: 99%
MKNK1 (human); compound 10.0 µM
  residual activity: 99%
MST4 (human); compound 0.1 µM
  residual activity: 101%
MST4 (human); compound 1.0 µM
  residual activity: 117%
MST4 (human); compound 10.0 µM
  residual activity: 86%
NEK2 (human); compound 0.1 µM
  residual activity: 107%
NEK2 (human); compound 1.0 µM
  residual activity: 97%
NEK2 (human); compound 10.0 µM
  residual activity: 96%
NUAK1 (human); compound 0.1 µM
  residual activity: 115%
NUAK1 (human); compound 1.0 µM
  residual activity: 107%
NUAK1 (human); compound 10.0 µM
  residual activity: 98%
PAK4 (human); compound 0.1 µM
  residual activity: 102%
PAK4 (human); compound 1.0 µM
  residual activity: 101%
PAK4 (human); compound 10.0 µM
  residual activity: 67%
PAK7 (human); compound 0.1 µM
  residual activity: 104%
PAK7 (human); compound 1.0 µM
  residual activity: 92%
PAK7 (human); compound 10.0 µM
  residual activity: 64%
PLK1 (human); compound 0.1 µM
  residual activity: 118%
PLK1 (human); compound 1.0 µM
  residual activity: 107%
PLK1 (human); compound 10.0 µM
  residual activity: 121%
PRKAA1 or PRKAA2 (rat); compound 0.1 µM
  residual activity: 97%
PRKAA1 or PRKAA2 (rat); compound 1.0 µM
  residual activity: 99%
PRKAA1 or PRKAA2 (rat); compound 10.0 µM
  residual activity: 99%
PRKACA (human); compound 0.1 µM
  residual activity: 105%
PRKACA (human); compound 1.0 µM
  residual activity: 112%
PRKACA (human); compound 10.0 µM
  residual activity: 111%
PRKCA (human); compound 0.1 µM
  residual activity: 99%
PRKCA (human); compound 1.0 µM
  residual activity: 91%
PRKCA (human); compound 10.0 µM
  residual activity: 96%
RPS6KA1 KD1 KD2 (human); compound 0.1 µM
  residual activity: 95%
RPS6KA1 KD1 KD2 (human); compound 1.0 µM
  residual activity: 93%
RPS6KA1 KD1 KD2 (human); compound 10.0 µM
  residual activity: 114%
[2]; compound 0.1 µM
  residual activity: 106%
[2]; compound 1.0 µM
  residual activity: 102%
[2]; compound 10.0 µM
  residual activity: 102%
SYK (human); compound 0.1 µM
  residual activity: 99%
SYK (human); compound 1.0 µM
  residual activity: 88%
SYK (human); compound 10.0 µM
  residual activity: 82%
